Test results from PubChem BioAssay (NCI).
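96-well plates; 48 h exposure; 5 concentrations. Endpoints by linear interpolation between flanking doses. Not reached: highest tested concentration assigned. GI50: concentration for 50% inhibition of growth. TGI: concentration producing complete growth inhibition.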

Key:
Assay in all cases: NCI tumour cell line growth inhibition, 48 h
[1] = tested on: A498 renal
[2] = tested on: IGROV1 ovarian
[3] = tested on: NCI-H23 lung
[4] = tested on: SF-295 CNS
[5] = tested on: SK-OV-3 ovarian
[6] = tested on: SW-620 colon
[7] = tested on: U251 CNS
[8] = tested on: UO-31 renal
[9] = tested on: BT-549 breast
[10] = tested on: NCI/ADR-RES ovarian

For `C=CCNC(=O)N(CCCCC(NC(C)=O)C(=O)NCc1ccccc1)Cc1ccccc1` (stereo not given), the TGI [1] was greater than 100 µM, the TGI [2] was greater than 100 µM and the TGI [3] was greater than 100 µM. For the same compound, the TGI [4] was greater than 100 µM, the TGI [5] was greater than 100 µM and the TGI [6] was greater than 100 µM. It also gave a TGI [7] greater than 100 µM and a TGI [8] greater than 100 µM.
Work on `O=C(O)C1=C(O)C(C(=O)O)C23CCCCCCCCCCC12C(C(=O)O)C(O)=C3C(=O)O` (stereo not given) yielded a TGI [2] greater than 100 µM, a TGI [3] greater than 100 µM and a TGI [4] greater than 100 µM. The TGI [5] was greater than 100 µM, the TGI [6] was greater than 100 µM and the TGI [7] was greater than 100 µM. It also gave a TGI [8] greater than 100 µM.
In the case of `COC(=O)CC1C[C@H](C#N)N(C(=O)c2ccccc2)C[C@@H]1CC[N+](=O)[O-]` (stereo not given in full), the TGI [1] is reported as greater than 100 µM, the TGI [2] is reported as greater than 100 µM and the TGI [3] is reported as greater than 100 µM. For the same compound, the TGI [4] was greater than 100 µM, the TGI [5] was greater than 100 µM and the TGI [6] was greater than 100 µM. For the same compound, the TGI [7] was greater than 100 µM and the TGI [8] was greater than 100 µM.
`CCN(CC)c1c(C(=O)/C=C/c2ccc(Cl)cc2)c(-c2ccccc2)nn(C)c1=O` was tested, and the TGI [1] was 4.44 µM, the TGI [2] was 4.21 µM and the TGI [3] was 3.1 µM. It also gave a TGI [4] of 3.38 µM, a TGI [5] of 18.7 µM and a TGI [6] of 4.6 µM. The TGI [7] was 3.18 µM and the TGI [8] was 3.12 µM.
`O=[N+]([O-])c1ccc(C[P+](c2ccccc2)(c2ccccc2)c2ccccc2)cc1` was tested, and the TGI [1] was greater than 100 µM, the TGI [2] was greater than 100 µM and the TGI [3] was greater than 100 µM. The TGI [4] was greater than 100 µM, the TGI [5] was greater than 100 µM and the TGI [6] was greater than 100 µM. The TGI [7] was greater than 100 µM and the TGI [8] was greater than 100 µM.
With `CCOC(=O)/C(C=Nc1ccc(-c2nc3ccccc3[nH]2)cc1)=C(/C)O` the GI50 [9] was 10 µM, the TGI [9] was 24.9 µM and the GI50 [2] was 7.35 µM. The TGI [2] was 16.2 µM, the GI50 [3] was 15 µM and the TGI [3] was 31 µM. For the same compound, the GI50 [10] was 13 µM, the TGI [10] was 32.2 µM and the GI50 [4] was 16.4 µM. The TGI [4] was greater than 50 µM, the GI50 [5] was 22.2 µM and the TGI [5] was greater than 50 µM. For the same compound, the GI50 [6] was 11.7 µM, the TGI [6] was 22.7 µM and the GI50 [7] was 8.74 µM. The TGI [7] was 15.6 µM, the GI50 [8] was 10.3 µM and the TGI [8] was 31.1 µM.
`OC(Cc1ccncc1)C(Cl)(Cl)Cl` (stereo not given) showed a GI50 [9] greater than 100 µM, a TGI [9] greater than 100 µM and a GI50 [3] of 76.3 µM. It also gave a TGI [3] greater than 100 µM, a GI50 [10] greater than 100 µM and a TGI [10] greater than 100 µM. The GI50 [4] was 7.83 µM, the TGI [4] was greater than 100 µM and the GI50 [5] was greater than 100 µM. For the same compound, the TGI [5] was greater than 100 µM, the GI50 [6] was greater than 100 µM and the TGI [6] was greater than 100 µM. The GI50 [7] was greater than 100 µM, the TGI [7] was greater than 100 µM and the GI50 [8] was greater than 100 µM. For the same compound, the TGI [8] was greater than 100 µM.
For `CC1(C)C2CCC13C(=O)C1OC3(C2)C2C(=O)c3cc4ccccc4cc3C(=O)C12` (stereo not given), the GI50 [3] was 4.75 µM, the TGI [3] was 32.6 µM and the GI50 [10] was 2.71 µM. For the same compound, the TGI [10] was 15.9 µM, the GI50 [5] was 12.2 µM and the TGI [5] was 67.4 µM. The GI50 [7] was 15.1 µM, the TGI [7] was 34.4 µM and the GI50 [8] was 19.6 µM. It also gave a TGI [8] greater than 100 µM.
`Cc1cccc(/C=C/c2c(C(=O)/C=C/c3ccccc3)c(C)nc3ccccc23)c1` was tested, and the GI50 [1] was 1.77 µM, the TGI [1] was 3.26 µM and the GI50 [2] was 1.44 µM. For the same compound, the TGI [2] was 4 µM, the GI50 [3] was 1.58 µM and the TGI [3] was 3.57 µM. For the same compound, the GI50 [10] was 1.85 µM, the TGI [10] was 4.65 µM and the GI50 [4] was 1.89 µM. It also gave a TGI [4] of 3.73 µM, a GI50 [6] of 1.34 µM and a TGI [6] of 2.98 µM. For the same compound, the GI50 [7] was 1.47 µM, the TGI [7] was 2.85 µM and the GI50 [8] was 1.26 µM. The TGI [8] was 2.51 µM.
`CCOC(=O)C12CCCC1(O)N(NC(=O)OC(C)(C)C)C(C)=C2C(=O)OC` (stereo not given) showed a TGI [1] greater than 100 µM, a TGI [2] greater than 100 µM and a TGI [3] greater than 100 µM. It also gave a TGI [4] greater than 100 µM, a TGI [5] greater than 100 µM and a TGI [6] greater than 100 µM. It also gave a TGI [7] greater than 100 µM and a TGI [8] greater than 100 µM.
Work on `COC(=O)NC(=O)c1cn(C2OC(CO)C(O)C2O)c(=O)[nH]c1=O` (stereo not given) yielded a TGI [2] greater than 100 µM, a TGI [3] greater than 100 µM and a TGI [4] greater than 100 µM. It also gave a TGI [5] greater than 100 µM, a TGI [6] greater than 100 µM and a TGI [7] greater than 100 µM. It also gave a TGI [8] greater than 100 µM.
Compound `CCOC(=O)c1nn2c(nc1=O)sc1ccc3ccccc3c12` has a TGI [2] greater than 100 µM, a TGI [3] greater than 100 µM and a TGI [4] greater than 100 µM. For the same compound, the TGI [5] was greater than 100 µM, the TGI [6] was greater than 100 µM and the TGI [7] was greater than 100 µM. It also gave a TGI [8] greater than 100 µM.
`COc1cc(/C=C\c2cc(OC)c(OC)c(OC)c2)cc(NC(=O)/C=C/c2cc(OC)c(OC)c(OC)c2)c1OC` gave a GI50 [1] of 5.21 µM, a TGI [1] greater than 100 µM and a GI50 [9] of 2.92 µM. It also gave a TGI [9] greater than 100 µM, a GI50 [2] of 6.61 µM and a TGI [2] greater than 100 µM. It also gave a GI50 [3] of 5.27 µM, a TGI [3] greater than 100 µM and a GI50 [10] of 2.77 µM. The TGI [10] was greater than 100 µM, the GI50 [5] was 6.62 µM and the TGI [5] was greater than 100 µM. For the same compound, the GI50 [6] was 5.89 µM, the TGI [6] was greater than 100 µM and the GI50 [7] was 6.71 µM. For the same compound, the TGI [7] was greater than 100 µM, the GI50 [8] was 1.09 µM and the TGI [8] was greater than 100 µM.
In the case of `NC(=O)C(=O)N/N=C1\C(=O)N(c2ccc(Cl)cc2Cl)C(=O)C1C(=O)Nc1ccc(Cl)cc1Cl` (stereo not given), the TGI [1] is reported as greater than 100 µM, the TGI [2] is reported as greater than 100 µM and the TGI [3] is reported as greater than 100 µM. The TGI [4] was greater than 100 µM, the TGI [5] was greater than 100 µM and the TGI [6] was greater than 100 µM. It also gave a TGI [7] greater than 100 µM and a TGI [8] greater than 100 µM.
Compound `O/N=C1/C(=C/c2ccc3c(c2)OCO3)CCCC1C(NO)c1ccc2c(c1)OCO2` (stereo not given) has a TGI [1] of 79 µM, a TGI [2] of 86.5 µM and a TGI [3] of 72.5 µM. It also gave a TGI [5] of 94 µM, a TGI [6] greater than 100 µM and a TGI [7] of 45.1 µM. The TGI [8] was 58.5 µM.
Work on `C=CCN=c1sc2c(n1NC(=O)c1cc3ccc1CCc1ccc(cc1)CC3)C(=O)c1ccccc1C2=O` yielded a GI50 [1] of 10.5 µM, a TGI [1] of 47 µM and a GI50 [9] of 1.53 µM. The TGI [9] was 2.91 µM, the GI50 [2] was 1.13 µM and the TGI [2] was 3.21 µM. It also gave a GI50 [3] of 1.46 µM, a TGI [3] of 3.76 µM and a GI50 [4] of 1.68 µM. For the same compound, the TGI [4] was 3.08 µM, the GI50 [5] was 3.7 µM and the TGI [5] was 23.4 µM. It also gave a GI50 [6] of 1.63 µM, a TGI [6] of 3.45 µM and a GI50 [7] of 1.6 µM. For the same compound, the TGI [7] was 4.28 µM, the GI50 [8] was 0.496 µM and the TGI [8] was 2.09 µM.
Work on `CN1CCC2(CC1)ONC1=NCCN12` yielded a GI50 [1] of 41.4 µM, a TGI [1] greater than 100 µM and a GI50 [9] of 53.1 µM. The TGI [9] was greater than 100 µM, the GI50 [3] was 34.5 µM and the TGI [3] was greater than 100 µM. It also gave a GI50 [10] of 19.6 µM, a TGI [10] of 70.3 µM and a GI50 [4] of 44.5 µM. For the same compound, the TGI [4] was greater than 100 µM, the GI50 [5] was 42 µM and the TGI [5] was greater than 100 µM. The GI50 [6] was 51.8 µM, the TGI [6] was greater than 100 µM and the GI50 [7] was 29.4 µM. The TGI [7] was greater than 100 µM, the GI50 [8] was 45.3 µM and the TGI [8] was greater than 100 µM.
With `O=C(O)CCN(CCCCN(CCC(=O)O)CCC(=O)O)CCC(=O)O` the TGI [1] was greater than 100 µM, the TGI [2] was greater than 100 µM and the TGI [3] was greater than 100 µM. It also gave a TGI [4] greater than 100 µM, a TGI [5] greater than 100 µM and a TGI [6] greater than 100 µM. It also gave a TGI [7] greater than 100 µM.
With `CCCCCCCCCCCc1nnc(N)o1` the TGI [2] was greater than 100 µM, the TGI [3] was greater than 100 µM and the TGI [4] was greater than 100 µM. It also gave a TGI [5] greater than 100 µM, a TGI [6] greater than 100 µM and a TGI [7] greater than 100 µM. The TGI [8] was 38.3 µM.
Work on `COc1ccc(/C=N/N=C(\N)NO)cc1O` yielded a TGI [2] greater than 100 µM, a TGI [3] greater than 100 µM and a TGI [5] greater than 100 µM. It also gave a TGI [6] greater than 100 µM, a TGI [7] greater than 100 µM and a TGI [8] greater than 100 µM.
